Assay results taken from US20240109898A1, “SUBSTITUTED PYRAZOLO[1,5-A]PYRIMIDINE-7-AMINE DERIVATIVES, COMPOSITIONS AND PHARMACEUTICAL USES THEREOF” (SHANGHAI HAIYAN PHARMACEUTICAL TECHNOLOGY CO., LTD., priority 2021, published 2024).

What was measured:
[1] = In vivo pharmacokinetics in mice; details: mouse, plasma, po, male ICR mice, intragastric 10 mg/kg; for AUC(0-t): read-out: Area under the oral curve AUC0-t; for Cmax: read-out: Oral maximum plasma concentration Cmax(ng/mL)
Description: To investigate the pharmacokinetic behaviors of the compounds according to the present disclosure in mice and evaluate the pharmacokinetic characteristics thereof, the plasma concentrations of the compounds according to the present disclosure in mice at different time points after intravenous injection and intragastric administration of the compounds were determined by LC/MS/MS.
Experimental Protocol: • Experimental animals: healthy adult male ICR mice (12 mice with body weight of 30-40 g, free water and diet for intravenous injection group, and fasted overnight for intragastric administration group, free water and diet after 4 hours of administration) were provided by Beijing Vital River Laboratory Animal Co. LTD; • Administration route and dosage: the ICR mice were administrated intravenously via the tail vein (2 mg/kg, 5% DMSO, pH 4.5 20% Captisol) and intragastrically (10 mg/kg, 5% DMSO, pH 4.5 20% Captisol).
Blood sample collection: prior to the administration, animals satisfying the experimental requirements were selected, weighed and marked. Before collecting blood samples, the mice were tied together, and the blood of each administrated mouse was collected at the respective scheduled time points (for the intravenous administration, the blood was collected at 0.083 h, 0.25 h, 0.5 h, 1 h, 2 h, 4 h, 6 h, 7.5 h, and 24 h after the administration, respectively, for a total of 9 time points; for the intragastric administration, the blood was collected at 0.083 h, 0.25 h, 0.5 h, 1 h, 2 h, 4 h, 6 h, 7.5 h, and 24 h after the administration, respectively, for a total of 9 time points), about 100 μL of blood was collected from orbit. The blood was transferred to a 1.5 mL tube, which was pre-filled with K2EDTA, centrifuged for 4 minutes (8000 rpm, 4° C.), and the plasma removed within 15 minutes, which all the steps were finished in 15 minutes after the collection of blood samples. All samples were stored in −20° C. refrigerator before sample analysis. The drug concentrations were determined using the LC/MS/MS method, the pharmacokinetic parameters of the compounds of some examples of the present disclosure in mice at the same dosage and administration routes were lists in Table 3: […]

[2] = test system: MV4-11 acute myeloid leukemia xenografts; test: In vivo pharmacodynamic assay, MV4-11 subcutaneous xenograft; set-up: species or system BALB/c nude mice; details: Table 5, oral, once a day
Description: In vivo pharmacodynamic assays were performed on (CDX)BALB/c nude mice implanted subcutaneously with MV4-11 acute myeloid leukemia […] xenografts derived from human tumor cell lines.
Experimental protocol: BALB/c nude mice, female, 6-10 weeks old, with weight of approximately 20-23 grams, were maintained in a specific pathogen-free environment, 5 mice in each cage, and 2 cages with 10 mice as one group. All the cages, bedding and water were disinfected before use. All animals had free access to a standard certified commercial laboratory diet. […] Each mouse was implanted subcutaneously with tumor cells (1×10^7 0.1 ml+Matrigel 0.1 ml) in the right flank for tumor growth. When the mean tumor volume reached approximately 165 mm^3, the tumors were randomly grouped according to body weight and tumor volume, and the administration of the compounds began. Test compounds were administered via oral gavage daily. Antitumor efficacy was determined by dividing the mean tumor volume increase of the animals treated with the compound by the mean tumor volume increase of untreated animals.
Tumor volumes were measured twice a week with two-dimensional calipers, and volumes were measured in cubic millimeters. Tumor volume TV=0.5a×b^2, where a represent a long diameter of the tumor and b represents a short diameter of the tumor.
Relative tumor proliferation rate T/C (%), i.e., a percentage value of relative tumor volume of treatment group to relative tumor volume of control group at a certain time point, can be calculated based on an equation of T/C %=TRTV/CRTV×100 (TRTV: mean RTV in treatment group; CRTV: mean RTV in solvent control group; RTV=Vt/V0, V0 being the tumor volume of the animal at the time of grouping, Vt being the tumor volume of the animal after treatment).
Body weight change (%) of tumor-bearing animals was calculated as follows:
(weight at measurement−weight at grouping)/weight at grouping×100.

CDK9/CycT = CDK9/CycT (Homo sapiens (Human), UniProt P50750); test: LANCE Ultra kinase activity inhibition assay, CDK9/CycT; assay type: biochemical; details: ATP 10 μM, highest compound concentration 1 μM
Sequence of CDK9/CycT (P50750 whole entry): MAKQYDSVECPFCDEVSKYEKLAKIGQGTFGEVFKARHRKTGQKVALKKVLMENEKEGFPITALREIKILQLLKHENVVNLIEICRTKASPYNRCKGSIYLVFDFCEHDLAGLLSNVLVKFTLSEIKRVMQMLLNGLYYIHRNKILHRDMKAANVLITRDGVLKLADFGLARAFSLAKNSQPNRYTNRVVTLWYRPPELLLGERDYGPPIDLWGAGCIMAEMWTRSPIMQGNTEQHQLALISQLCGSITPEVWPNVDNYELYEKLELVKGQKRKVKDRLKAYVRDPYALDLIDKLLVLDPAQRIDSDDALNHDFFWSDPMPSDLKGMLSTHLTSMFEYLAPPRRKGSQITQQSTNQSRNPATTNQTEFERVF
Sequence of CDK9/CycT (O60563 whole entry partner): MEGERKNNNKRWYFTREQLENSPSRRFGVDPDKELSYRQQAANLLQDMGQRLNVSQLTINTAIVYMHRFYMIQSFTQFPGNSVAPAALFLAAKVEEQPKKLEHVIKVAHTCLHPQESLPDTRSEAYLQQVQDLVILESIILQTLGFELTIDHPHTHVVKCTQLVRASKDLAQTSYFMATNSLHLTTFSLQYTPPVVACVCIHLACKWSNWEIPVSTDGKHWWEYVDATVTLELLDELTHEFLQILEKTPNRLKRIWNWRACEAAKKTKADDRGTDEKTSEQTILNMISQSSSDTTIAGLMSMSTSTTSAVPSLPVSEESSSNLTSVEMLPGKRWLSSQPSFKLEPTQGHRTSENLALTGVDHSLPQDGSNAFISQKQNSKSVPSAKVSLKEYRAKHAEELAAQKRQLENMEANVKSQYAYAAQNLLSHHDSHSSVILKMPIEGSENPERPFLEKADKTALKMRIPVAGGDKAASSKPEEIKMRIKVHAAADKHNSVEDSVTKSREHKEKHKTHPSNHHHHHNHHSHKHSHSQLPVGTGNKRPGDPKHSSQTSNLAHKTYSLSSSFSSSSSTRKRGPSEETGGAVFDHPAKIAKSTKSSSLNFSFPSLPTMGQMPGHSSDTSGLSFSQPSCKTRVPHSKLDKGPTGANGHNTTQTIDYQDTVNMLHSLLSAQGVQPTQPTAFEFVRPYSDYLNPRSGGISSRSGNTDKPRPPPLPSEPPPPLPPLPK

Compound | AUC(0-t) [1] [ng·h/mL] | Cmax [1] [ng/mL] | Average tumor weight ([2]; 12.5 mpk) [g] | T/C(%) ([2]; 12.5 mpk) | Average tumor weight ([2]; 25 mpk) [g] | T/C(%) ([2]; 25 mpk) | IC50 (CDK9/CycT) [µM] | Average tumor weight ([2]; 5 mpk) [g] | T/C(%) ([2]; 5 mpk) | Average tumor weight ([2]; 10 mpk) [g] | T/C(%) ([2]; 10 mpk)
CCC(CC)c1cc(N[C@H]2CC[C@H](N)C2)n2nccc2n1 [Compound D, reference compound] | 1190 | 433 | 0.43 | 35.91 | 0.04 | 2.90 | – | – | – | – | –
C[C@H](c1cc(N[C@H]2CC[C@H](N)C2)n2nccc2n1)C1CC1 [Compound Z-5-2] | 1700 | 690 | – | – | – | – | 0.007 | 0.72 | 59.25 | 0.04 | 3.45
